Assay results published in patent US4839343A, “Preparation containing hexatriacontapeptides and methods of use” (Debiopharm, S.A., priority 1987, dated 1989).

Tests used:
[1] = test system: Normotensive male Wistar rats; assay: Endotoxin-induced blood pressure fall in adrenal-demedullated conscious rats, i.v. NPY infusion; format: in vivo, rat
Experimental: Normotensive male Wistar rats were subjected to adrenal demedullation on the right side and either adrenolectomized or sham-operated on the left side. Ten days later a solution of NPY in non-alkaline saline was given as an intravenous infusion (70 ng/min) to these conscious semi-restrained animals. A group of control animals received only the saline diluent. During the last 75 minutes of the experiment, endotoxin (LPs E. Coli 0111: B4, 10 mcg/min i.v.) was administered both in NPY-treated and control animals.

[2] = test system: Conscious normotensive rats; assay: Pressor response to norepinephrine in conscious normotensive rats infused with endotoxin and/or NPY; format: in vivo, rat
Experimental: Conscious normotensive rats were divided into six groups. Rats of Group II and IV were infused intravenously with NPY (0.1 mcg/min for 75 min). A further two groups of rats (I and III) received the vehicle of the peptide ([…]) for the same period. Escherichia Coli endotoxin (lipopolysaccharide E. Coli 0.111: B4, Difco Laboratories, Detroit, MI), 10 mcg/10 mcl/min was infused starting 15 min after the beginning of the NPY-infusion (Group IV) or its vehicle (Group III). The remaining rats (Groups I and […]) were given the vehicle of endotoxin, 10 mcl/min i.v. In all these rats, a dose-response curve to intravenous injections of norepinephrine was obtained 5 min after ending the administration of NPY. The infusion of endotoxin or its vehicle was continued throughout this period. In two additional groups rats infused for 45 min with endotoxin or its vehicle, a 2 ml blood sample was obtained via the arterial catheter for determination of plasma NPY levels.
The endotoxin was dissolved in 0.9% NaCl to achieve a concentration of […]. NPY was diluted with 0.1M HCl to a concentration of 10 mg/l. Aliquots containing 15 mcg were stored frozen at -70° C. and thawed immediately before use. The different solutions were infused using a syringe pump (Model 455, Sage Instrument, White Plains, NY). Norepinephrine (Arterenol, Hoechst, Frankfurt-am-Main, FRG) was diluted in 0.9% NaCl to attain a concentration of 20 ng/20 mcl. Using a 250 mcl glass syringe (Hamilton), the dose of norepinephrine was increased by altering the volume injected.

[3] = test system: patient seriously affected by bacteremic (endotoxic) shock; assay: Treatment of patient with bacteremic (endotoxic) shock by intravenous peptide infusion; format: in vivo, human
Experimental: A patient seriously affected by bacteremic (endotoxic) shock was admitted in an intensive care unit and treated with dopamine given intravenously at doses of 10 and 20 mcg/kg/min.
A solution of NPY was then given by intravenous infusion at increasing doses of 0.01 to 50 pmol/kg/min over a period of 10 hours.

| Compound | reduction of intraarterial mean blood pressure during endotoxin infusion ([1]; NPY 70 ng/min i.v. infusion, endotoxin 10 mcg/min i.v. for last 75 min, 12 rats, baseline 116±1.6 mm Hg, controls dropped 40±6.4 mm Hg, 2 of 9 died) [mm Hg] | effect of NPY infusion alone on blood pressure ([1]; another group of rats, NPY 70 ng/min i.v., no endotoxin) | pressor effects of norepinephrine after NPY infused alone (Group II) versus control (Group I) ([2]; NPY 0.1 mcg/min i.v. 75 min, norepinephrine 20, 40, 80, 160 ng, p<0.001, <0.01, <0.001, <0.05) | blood pressure response to norepinephrine in endotoxin plus NPY rats (Group IV) versus control rats (Group I) ([2]; NPY 0.1 mcg/min i.v. 75 min plus endotoxin, all norepinephrine doses tested) | blood pressure response to norepinephrine in endotoxin-treated rats (Group IV) versus endotoxin alone (Group III) ([2]; NPY 0.1 mcg/min i.v. 75 min plus endotoxin, norepinephrine 20, 40, 80, 160 ng i.v., p<0.05, <0.01, <0.01, <0.05) | effect on blood pressure or heart rate before norepinephrine injections ([2]; NPY 0.1 mcg/min i.v. for 75 min, alone or in combination with endotoxin 10 mcg/min) | duration of NPY-induced facilitation of norepinephrine evoked changes in blood pressure ([2]; last norepinephrine dose given 50 min after stopping the NPY infusion) | effect on concomitant dopamine dose ([3]; NPY i.v. infusion 0.01 to 50 pmol/kg/min over 10 hours, each time tachycardia was observed) | arterial pressure of the patient ([3]; NPY i.v. infusion, increasing doses 0.01 to 50 pmol/kg/min over 10 hours, with dopamine) | arterial pressure of the patient under dopamine alone ([3]; dopamine i.v. 10 and 20 mcg/kg/min, before NPY) |
| --- | --- | --- | --- | --- | --- | --- | --- | --- | --- | --- |
| neuropeptide Y [NPY] | 8±2.1 | no significant effect on blood pressure | significantly enhanced | no longer any significant difference | significantly greater than in those animals receiving endotoxin alone | no significant effect on blood pressure or heart rate | long-lasting | allowed a decrease in the dose of dopamine | normalization of arterial pressure | – |
| NCCc1ccc(O)c(O)c1 [dopamine, reference compound] | – | – | – | – | – | – | – | – | – | continued to fall |
